In US20050282818A1, “Ubiquitin ligase inhibitors” (Rigel Pharmaceuticals, Inc., priority 2004, published 2005):
Read-outs that look alike come from different tables or passages of the source.

What was measured:
TRAF6/Uev1A/Ubc13 = biological target: T1, TRAF6/Uev1A/Ubc13 (Homo sapiens, UniProt Q9Y4K3); assay: TRAF6/Uev1A/Ubc13 plate-based ubiquitin ligase assay; format: biochemical
T1 sequence (Q9Y4K3 1-522): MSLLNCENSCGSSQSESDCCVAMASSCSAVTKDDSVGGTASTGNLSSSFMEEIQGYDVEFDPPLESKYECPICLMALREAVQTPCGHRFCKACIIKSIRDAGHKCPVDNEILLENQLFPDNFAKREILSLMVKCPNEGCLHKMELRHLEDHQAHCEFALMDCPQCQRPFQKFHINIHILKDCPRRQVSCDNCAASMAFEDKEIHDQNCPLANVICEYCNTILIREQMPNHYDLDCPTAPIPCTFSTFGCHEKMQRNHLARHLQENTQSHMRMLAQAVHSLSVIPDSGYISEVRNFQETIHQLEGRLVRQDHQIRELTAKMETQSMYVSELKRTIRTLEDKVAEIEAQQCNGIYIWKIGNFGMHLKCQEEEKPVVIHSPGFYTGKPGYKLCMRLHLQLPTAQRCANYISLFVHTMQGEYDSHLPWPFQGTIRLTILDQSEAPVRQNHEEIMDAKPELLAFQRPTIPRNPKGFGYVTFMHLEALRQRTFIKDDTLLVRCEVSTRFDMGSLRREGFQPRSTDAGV
Procedure, shortened: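 Ligase activity was read as luminescence from anti-Flag/HRP detection of Flag-ubiquitin bound to casein-blocked Ni-plates alongside His-ubiquitin after a 1 h room-temperature reaction. Buffer: 62.5 mM Tris pH 7.5, 6.25 mM MgCl2, 1.0 mM DTT, 2 μM ATP; E1, Uev1a/Ubc13 and TRAF6 added last to start. IC50s derived across compound concentrations.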

A549 cells = assay: Cell proliferation PAD assay, A549; format: cell-based; conditions: Homo sapiens, 48 hours
Procedure, shortened: (§1)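 Plate 2,000 cells per well, then add compound after 24 h as duplicate 6.3-fold dilutions, with 10 mM master stock diluted 500-fold on transfer. Grow 48 h at 37 °C in 5% CO2, fix with formamide, stain nuclei with DAPI, and count cells by imaging.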

H1299 cells = assay: Cell proliferation PAD assay, H1299; format: cell-based; conditions: Homo sapiens, 48 hours
Procedure, shortened: as §1

[1] = NCI-H1299, 3pt, read-out: H1299 3pt
[2] = NCI-H1299, 6pt, read-out: H1299 6pt

Structure (SMILES) | IC50 (TRAF6/Uev1A/Ubc13) | IC50 (A549 cells; 3pt, read-out: A549 3pt) | IC50 (H1299 cells; [1]) | IC50 (A549 cells; 6pt, read-out: A549 6pt) | IC50 (H1299 cells; [2])
O=[N+]([O-])c1ccc(Oc2ccc(NS(=O)(=O)c3cccc4nonc34)cc2)cc1 [compound 101, N-[4-(4-nitrophenoxy)phenyl]-2,1,3-benzoxadiazole-4-sulfonamide] | ≥ 20 µM | ≥ 20 µM | ≥ 20 µM |  | 
O=S(=O)(Nc1ccc(Oc2ccccc2)cc1)c1cccc2nonc12 [compound 102, N-(4-phenoxyphenyl)-2,1,3-benzoxadiazole-4-sulfonamide] | ≥ 20 µM | ≥ 20 µM | ≥ 20 µM |  | 
O=S(=O)(Nc1ccc(Oc2cc(C(F)(F)F)ccn2)cc1)c1cccc2nonc12 [compound 103, N-(4-{[4-(trifluoromethyl)pyridin-2-yl]oxy}phenyl)-2,1,3-benzoxadiazole-4-sulfonamide] | ≥ 20 µM | ≥ 20 µM | ≥ 20 µM |  | 
O=S(=O)(Nc1ccc(Oc2ccc(Cl)cc2)cc1)c1cccc2nonc12 [compound 104, N-[4-(4-chlorophenoxy)phenyl]-2,1,3-benzoxadiazole-4-sulfonamide] | ≥ 20 µM | ≥ 20 µM | ≥ 20 µM |  | 
O=[N+]([O-])c1ccc(N2CCN(c3ccc(Cl)c(C(F)(F)F)c3)CC2)c2nonc12 [compound 105, {4-[4-chloro-3-(trifluoromethyl)phenyl]piperazin-1-yl}-7-nitro-2,1,3-benzoxadiazole] | ≥ 20 µM | ≥ 20 µM | ≥ 20 µM |  | 
O=[N+]([O-])c1ccc(N2CCN(c3cccc(C(F)(F)F)c3)CC2)c2nonc12 [compound 106, 4-nitro-7-{4-[3-(trifluoromethyl)phenyl]piperazin-1-yl}-2,1,3-benzoxadiazole] | ≥ 20 µM | ≥ 20 µM | ≥ 20 µM |  | 
O=[N+]([O-])c1ccc(N2CCN(c3ccncc3)CC2)c2nonc12 [compound 108, 4-nitro-7-(4-pyridin-4-ylpiperazin-1-yl)-2,1,3-benzoxadiazole] | ≥ 20 µM | 1 to 20 µM | ≥ 20 µM |  | 
CN1CCN(c2ccc([N+](=O)[O-])c3nonc23)CC1 [compound 110, 4-(4-methylpiperazin-1-yl)-7-nitro-2,1,3-benzoxadiazole] | ≥ 20 µM | ≥ 20 µM | ≥ 20 µM |  | 
O=[N+]([O-])c1ccc(N2CCNCC2)c2nonc12 [compound 112, 4-nitro-7-piperazin-1-yl-2,1,3-benzoxadiazole] | ≥ 20 µM | ≥ 20 µM | ≥ 20 µM |  | 
O=S(=O)(Nc1cccc2nsnc12)c1ccc(Oc2cccnc2)cc1 [compound 116, N-2,1,3-benzothiadiazol-4-yl-4-(pyridin-3-yloxy)benzenesulfonamide] | ≥ 20 µM | 1 to 20 µM | ≥ 20 µM |  | 
N#Cc1cccnc1N1CCN(c2ccc([N+](=O)[O-])c3nonc23)CC1 [compound 118, 2-[4-(7-nitro-2,1,3-benzoxadiazol-4-yl)piperazin-1-yl]nicotinonitrile] | 1 to 20 µM | ≥ 20 µM | ≥ 20 µM |  | 
O=S(=O)(Oc1ccc(N2CCN(S(=O)(=O)c3cccc4nonc34)CC2)cc1)c1cccc2nonc12 [compound 139, 4-[4-(2,1,3-benzoxadiazol-4-ylsulfonyl)piperazin-1-yl]phenyl 2,1,3-benzoxadiazole-4-sulfonate] | 1 to 20 µM | ≥ 20 µM | ≥ 20 µM |  | 
O=[N+]([O-])c1ccc(N2CCN(c3ccccc3)CC2)c2nonc12 [compound 143, 4-nitro-7-(4-phenylpiperazin-1-yl)-2,1,3-benzoxadiazole] | ≥ 20 µM | ≥ 20 µM | ≥ 20 µM |  | 
O=[N+]([O-])c1ccc(N2CCN(c3c(Cl)cncc3Cl)CC2)c2nonc12 [compound 151, 4-[4-(3,5-dichloropyridin-4-yl)piperazin-1-yl]-7-nitro-2,1,3-benzoxadiazole] | 1 to 20 µM | ≥ 20 µM | ≥ 20 µM |  | 
Cc1cc(N2CCN(c3ccc([N+](=O)[O-])c4nonc34)CC2)c2ccccc2n1 [compound 152, 2-methyl-4-[4-(7-nitro-2,1,3-benzoxadiazol-4-yl)piperazin-1-yl]quinoline] | ≥ 20 µM | 1 to 20 µM | 1 to 20 µM |  | 
Cc1ccnc(N2CCN(c3ccc([N+](=O)[O-])c4nonc34)CC2)c1 [compound 154, 4-[4-(4-methylpyridin-2-yl)piperazin-1-yl]-7-nitro-2,1,3-benzoxadiazole] | ≥ 20 µM | ≥ 20 µM | ≥ 20 µM |  | 
O=[N+]([O-])c1ccc(N2CCN(c3ccc4ccccc4n3)CC2)c2nonc12 [compound 155, 2-[4-(7-nitro-2,1,3-benzoxadiazol-4-yl)piperadin-1-yl]quinoline] | 1 to 20 µM | ≥ 20 µM | ≥ 20 µM |  | 
Cc1cccnc1N1CCN(c2ccc([N+](=O)[O-])c3nonc23)CC1 [compound 156, 4-[4-(3-methylpyridin-2-yl)piperazin-1-yl]-7-nitro-2,1,3-benzoxadiazole] | ≥ 20 µM | ≥ 20 µM | ≥ 20 µM |  | 
O=c1[nH]c2ccccc2n1C1CCN(c2ccc([N+](=O)[O-])c3nonc23)CC1 [compound 160, 1-[1-(7-nitro-2,1,3-benzoxadiazol-4-yl)piperidin-4-yl]-1,3-dihydro-2H-benzimidazol-2-one] | ≥ 20 µM | ≥ 20 µM | ≥ 20 µM |  | 
CC1CN(c2ccc([N+](=O)[O-])c3nonc23)CC(C)O1 (stereo not shown) [compound 161, 4-(2,6-dimethylmorpholin-4-yl)-7-nitro-2,1,3-benzoxadiazole] | ≥ 20 µM | ≥ 20 µM | ≥ 20 µM |  | 
Cc1cccc(N2CCN(c3ccc([N+](=O)[O-])c4nonc34)CC2)n1 [compound 162, 4-[4-(6-methylpyridin-2-yl)piperazin-1-yl]-7-nitro-2,1,3-benzoxadiazole] | ≥ 20 µM | ≥ 20 µM | ≥ 20 µM |  | 
COc1ccc(S(=O)(=O)N2CCN(c3ncc(C(F)(F)F)cc3Cl)CC2)c2nonc12 [compound 163, 4-({4-[3-chloro-5-(trifluoromethyl)pyridin-2-yl]piperazin-1-yl}sulfonyl)-7-methoxy-2,1,3-benzoxadiazole] | 1 to 20 µM | ≥ 20 µM | ≥ 20 µM |  | 
O=S(=O)(c1ccc(F)c2nonc12)N1CCN(c2ncccc2C(F)(F)F)CC1 [compound 165, 4-fluoro-7-({4-[3-(trifluoromethyl)pyridin-2-yl]piperazin-1-yl}sulfonyl)-2,1,3-benzoxadiazole] | ≥ 20 µM | 1 to 20 µM | ≥ 20 µM | ≥ 20 µM | ≥ 20 µM
O=S(=O)(c1ccc(N2CCN(c3ncccc3C(F)(F)F)CC2)c2nonc12)N1CCN(c2ncccc2C(F)(F)F)CC1 [compound 166, 4-{4-[3-(trifluoromethyl)pyridin-2-yl]piperazin-1-yl}-7-({4-[3-(trifluoromethyl)pyridin-2-yl]piperazin-1-yl}sulfonyl)-2,1,3-benzoxadiazole] | 1 to 20 µM |  |  | 1 to 20 µM | ≥ 20 µM
O=S(=O)(c1ccc(Cl)c2nonc12)N1CCC(O)(c2ccc(Cl)cc2)CC1 [compound 168, 1-[(7-chloro-2,1,3-benzoxadiazol-4-yl)sulfonyl]-4-(4-chlorophenyl)piperidin-4-ol] | ≥ 20 µM | 1 to 20 µM | 1 to 20 µM | ≥ 20 µM | ≥ 20 µM
O=S(=O)(c1ccc(Cl)c2nonc12)N1CCN(c2ccc(O)cc2)CC1 [compound 172, 4-{4-[(7-chloro-2,1,3-benzoxadiazol-4-yl)sulfonyl]piperazin-1-yl}phenol] | ≥ 20 µM | 1 to 20 µM | 1 to 20 µM | ≥ 20 µM | ≥ 20 µM
O=S(=O)(c1ccc(N2CCN(c3ccc(O)cc3)CC2)c2nonc12)N1CCN(c2ccc(O)cc2)CC1 [compound 173, 4-[4-({7-[4-(4-hydroxyphenyl)piperazin-1-yl]-2,1,3-benzoxadiazol-4-yl}sulfonyl)piperazin-1-yl]phenol] | ≥ 20 µM |  |  | 1 to 20 µM | 1 to 20 µM
COC(=O)c1ccc(NS(=O)(=O)c2ccc(Sc3cccc4cccnc34)c3nonc23)cc1 [compound 174, methyl 4-({[7-(quinolin-8-ylthio)-2,1,3-benzoxadiazol-4-yl]sulfonyl}amino)benzoate] | ≥ 20 µM | 1 to 20 µM | 1 to 20 µM | 1 to 20 µM | 1 to 20 µM
N#Cc1cccnc1N1CCN(S(=O)(=O)c2ccc(Sc3cccc4cccnc34)c3nonc23)CC1 [compound 176, 2-(4-{[7-(quinolin-8-ylthio)-2,1,3-benzoxadiazol-4-yl]sulfonyl}piperazin-1-yl)nicotinonitrile] | 1 to 20 µM | ≥ 20 µM | ≥ 20 µM | ≥ 20 µM | ≥ 20 µM
